Assay results taken from patent publication US7342027B2 (Yuhan Corporation, priority 2002, dated 2008).

Target: T1, Recombinant human cathepsin K (Homo sapiens, UniProt P43235)
T1 construct: made in house
T1 sequence (P43235 115-329): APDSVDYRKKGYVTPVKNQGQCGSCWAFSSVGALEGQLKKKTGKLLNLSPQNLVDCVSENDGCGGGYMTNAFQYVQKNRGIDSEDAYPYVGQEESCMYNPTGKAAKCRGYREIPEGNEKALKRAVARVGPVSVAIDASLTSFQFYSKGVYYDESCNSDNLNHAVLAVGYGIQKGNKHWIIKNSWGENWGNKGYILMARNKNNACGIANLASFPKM
Test: Inhibition of cathepsin K activity (Z-Phe-Arg-AMC fluorescence assay)
Type: biochemical
Settings: 25 uM Z-Phe-Arg-AMC, pH 5.5, 1 hour at 37° C.
Method: Test 1: Inhibition of Cathepsin K Activity
Recombinant human cathepsin K was prepared in accordance with Biol, Pharm. Bull, 19(8), 1026-1031 (1996) and J. Biol. Chem. 271, 2126-2132 (1996). Stock solutions of 2.5 mM Z-Phe-Arg-AMC (BACHEM, 1-1160) and all inhibitors were prepared in dimethyl sulfoxide. In vitro assays for cathepsin K were conducted with 25 uM Z-Phe-Arg-AMC as a substrate at pH 5.5 in 100 mM Na acetate buffer containing 20 mM cysteine and 5 mM EDTA in the presence of 2% final concentration of DMSO. Reaction was initiated by the addition of enzyme to samples, which were then incubated for 1 hour at 37° C. The fluorescence was monitored at 460 nm (excitation wavelength 360 nm) using fluorescence plate reader.
The concentrations of the test compounds, which inhibit 50% of cathepsin K activity, are represented as IC50 in Table 1.

| SMILES | IC50 [nM] |
| --- | --- |
| CS(=O)(=O)c1ccc(N2CCC(NC(=O)C3(NC(=O)c4cc5ccccc5o4)CCCCC3)C(=O)C2)cc1 (stereo not shown) [Example 5, 4-[N-[1-[N-(benzofuran-2-ylcarbonyl)amino]cyclohexanecarbonyl]amino]-1-(4-methanesulfonylphenyl)piperidin-3-one] | 5.05 |
| N#Cc1ccc(N2CCC(NC(=O)C3(NC(=O)c4cc5ccccc5o4)CCCCC3)C(=O)C2)cc1 (stereo not shown) [Example 7, 4-[N-[1-[N-(benzofuran-2-ylcarbonyl)amino]cyclohexanecarbonyl]amino]-1-(4-cyanophenyl)piperidin-3-one] | 6.24 |
| N#Cc1c(F)cccc1N1CCC(NC(=O)C2(NC(=O)c3cc4ccccc4o3)CCCCC2)C(=O)C1 (stereo not shown) [Example 8, 4-[N-[1-[N-(benzofuran-2-ylcarbonyl)amino]cyclohexanecarbonyl]amino]-1-(2-cyano-3-fluorophenyl)piperidin-3-one] | 10.4 |
| O=C(NC1(C(=O)NC2CCN(c3ccc([N+](=O)[O-])cc3)CC2=O)CCCCC1)c1cc2ccccc2o1 (stereo not shown) [Example 16, 4-[N-[1-[N-(benzofuran-2-ylcarbonyl)amino]cyclohexanecarbonyl]amino]-1-(4-nitrophenyl)piperidin-3-one] | 10.8 |
| O=Cc1c(Cl)cccc1N1CCC(NC(=O)C2(NC(=O)c3cc4ccccc4o3)CCCCC2)C(=O)C1 (stereo not shown) [Example 19, 4-[N-[1-[N-(benzofuran-2-ylcarbonyl)amino]cyclohexanecarbonyl]amino]-1-(3-chloro-2-formylphenyl)piperidin-3-one] | 4.41 |
| O=C(NC1(C(=O)NC2CCN(c3ccccc3N3CCOCC3)CC2=O)CCCCC1)c1cc2ccccc2o1 (stereo not shown) [Example 26, 4-[N-[1-[N-(benzofuran-2-ylcarbonyl)amino]cyclohexanecarbonyl]amino]-1-[2-(4-morpholino)phenyl]piperidin-3-one] | 19.9 |
| CC(C)(C)OC(=O)c1ccccc1N1CCC(NC(=O)C2(NC(=O)c3cc4ccccc4o3)CCCCC2)C(=O)C1 (stereo not shown) [Example 37, 4-[N-[1-[N-(benzofuran-2-ylcarbonyl)amino]cyclohexanecarbonyl]amino]-1-[2-(tert-butoxycarbonyl)phenyl]piperidin-3-one] | 3.78 |

Next, values leading:

| IC50 [nM] | SMILES |
| --- | --- |
| 2.69 | CC(=O)c1ccccc1N1CCC(NC(=O)C2(NC(=O)c3cc4ccccc4o3)CCCCC2)C(=O)C1 (stereo not shown) [Example 6, 4-[N-[1-[N-(benzofuran-2-ylcarbonyl)amino]cyclohexanecarbonyl]amino]-1-(2-acetylphenyl)piperidin-3-one] |
| 1.45 | O=Cc1ccccc1N1CCC(NC(=O)C2(NC(=O)c3cc4ccccc4o3)CCCCC2)C(=O)C1 (stereo not shown) [Example 15, 4-[N-[1-[N-(benzofuran-2-ylcarbonyl)amino]cyclohexanecarbonyl]amino]-1-(2-formylphenyl)piperidin-3-one] |
| 8.07 | CCOc1ccccc1N1CCC(NC(=O)C2(NC(=O)c3cc4ccccc4o3)CCCCC2)C(=O)C1 (stereo not shown) [Example 27, 4-[N-[1-[N-(benzofuran-2-ylcarbonyl)amino]cyclohexanecarbonyl]amino]-1-(2-ethoxyphenyl)piperidin-3-one] |
| 1.93 | O=C(NC1(C(=O)NC2CCN(c3ccccc3-c3ccco3)CC2=O)CCCCC1)c1cc2ccccc2o1 (stereo not shown) [Example 34, 4-[N-[1-[N-(benzofuran-2-ylcarbonyl)amino]cyclohexanecarbonyl]amino]-1-[2-(2-furyl)phenyl]piperidin-3-one] |
| 2.35 | O=C(NC1(C(=O)NC2CCN(c3ccccc3Br)CC2=O)CCCCC1)c1cc2ccccc2o1 (stereo not shown) [Example 35, 4-[N-[1-[N-(benzofuran-2-ylcarbonyl)amino]cyclohexanecarbonyl]amino]-1-(2-bromophenyl)piperidin-3-one] |
| 2.13 | CSc1ccccc1N1CCC(NC(=O)C2(NC(=O)c3cc4ccccc4o3)CCCCC2)C(=O)C1 (stereo not shown) [Example 36, 4-[N-[1-[N-(benzofuran-2-ylcarbonyl)amino]cyclohexanecarbonyl]amino]-1-(2-methylthiophenyl)piperidin-3-one] |
